Key:
S1P1 [1] = target: T1, S1P1 (Homo sapiens, UniProt P21453); assay: β-arrestin assay S1P1; type: cell-based
S1P2 = S1P2 (Homo sapiens, UniProt O95136); assay: β-arrestin assay S1P2; type: cell-based
S1P5 = S1P5 (Homo sapiens, UniProt Q9H228); assay: β-arrestin assay S1P5; type: cell-based
S1P3 = S1P3 (Homo sapiens, UniProt Q99500); assay: β-arrestin assay S1P3; type: cell-based
lymphocytes = assay: single ascending dose and multiple ascending dose studies in healthy subjects; type: in vivo
S1P1 [2] = target: T1, S1P1; assay: cAMP assay; type: cell-based; settings: read-out: ECK, cAMP
S1P4 = target: T2, S1P4 (Homo sapiens, UniProt O95977); assay: β-arrestin assay S1P4; type: cell-based
T2 sequence (O95977 1-384): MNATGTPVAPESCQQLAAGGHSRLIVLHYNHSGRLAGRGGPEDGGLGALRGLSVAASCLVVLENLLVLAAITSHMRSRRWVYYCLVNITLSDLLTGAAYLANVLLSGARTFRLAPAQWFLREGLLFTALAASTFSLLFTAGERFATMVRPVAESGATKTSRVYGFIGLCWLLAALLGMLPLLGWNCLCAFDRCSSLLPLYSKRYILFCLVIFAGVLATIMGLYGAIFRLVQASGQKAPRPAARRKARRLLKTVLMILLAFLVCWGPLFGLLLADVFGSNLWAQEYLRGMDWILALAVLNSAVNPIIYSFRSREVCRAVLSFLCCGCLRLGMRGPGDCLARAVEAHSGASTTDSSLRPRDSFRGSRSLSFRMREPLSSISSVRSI

[3] = system: bleomycin-induced skin fibrosis; assay: bleomycin-induced rodent model of skin fibrosis; type: in vivo, male C57BL/6 mice; settings: mice, PO QD
Description: Compound 1 was evaluated in a bleomycin-induced rodent model of skin fibrosis. Skin fibrosis was induced in male C57BL/6 mice (6-7 weeks old; 20-25 g) with bleomycin injections at a concentration of 0.5 mg/ml via subcutaneous (SC) route. The mice received 100 μl of bleomycin at 0.5 mg/ml dissolved in PBS every other day for 21 days. The following treatments were randomly assigned: 1.) sham+vehicle (10% HBPCD/saline) per oral (PO) once daily (QD); 2.) bleomycin+vehicle (10% HBPCD/saline) PO QD; 3.) bleomycin+1 mg/kg Compound 1 PO QD; 4.) bleomycin+3 mg/kg Compound 1 PO QD; 5.) bleomycin+1 mg/kg FTY720 PO 3×/week; 6.) bleomycin+90 mg/kg FTY720 intraperitoneal (IP) QD (FIG. 1). Skin tissue was harvested post-mortem, with half of the biopsy specimen fixed in 4% wt/vol. paraformaldehyde for histology and the other half snap frozen for collagen analysis (hydroxyproline assay). Histological sections (4 μm) were cut from paraffin-embedded PFA-fixed lesional skin tissue. Sections were stained with haematoxylin and eosin (H&E) and Masson's Trichrome. Images were captured at ×100 microscopic magnification for histological dermal thickness determination. Collagen deposition (FIG. 2A), dermal thickness (FIG. 2B), tissue sections (FIG. 2C), dermal fibrosis (FIG. 3A), inflammation (FIG. 3B), and average epidermal thickness (FIG. 3C) were evaluated.

T1 sequence (P21453 whole entry): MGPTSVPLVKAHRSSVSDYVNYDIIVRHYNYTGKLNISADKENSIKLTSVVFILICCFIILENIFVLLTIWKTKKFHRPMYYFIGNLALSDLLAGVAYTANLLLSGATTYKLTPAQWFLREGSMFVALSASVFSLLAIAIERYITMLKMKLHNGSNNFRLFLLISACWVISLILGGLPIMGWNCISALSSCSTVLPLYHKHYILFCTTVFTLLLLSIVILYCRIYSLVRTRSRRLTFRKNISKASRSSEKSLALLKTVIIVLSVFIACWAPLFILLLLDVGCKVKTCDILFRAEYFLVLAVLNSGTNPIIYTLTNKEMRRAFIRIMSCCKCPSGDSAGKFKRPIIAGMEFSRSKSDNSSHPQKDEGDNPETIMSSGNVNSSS
Sequence of S1P2 (O95136 whole entry): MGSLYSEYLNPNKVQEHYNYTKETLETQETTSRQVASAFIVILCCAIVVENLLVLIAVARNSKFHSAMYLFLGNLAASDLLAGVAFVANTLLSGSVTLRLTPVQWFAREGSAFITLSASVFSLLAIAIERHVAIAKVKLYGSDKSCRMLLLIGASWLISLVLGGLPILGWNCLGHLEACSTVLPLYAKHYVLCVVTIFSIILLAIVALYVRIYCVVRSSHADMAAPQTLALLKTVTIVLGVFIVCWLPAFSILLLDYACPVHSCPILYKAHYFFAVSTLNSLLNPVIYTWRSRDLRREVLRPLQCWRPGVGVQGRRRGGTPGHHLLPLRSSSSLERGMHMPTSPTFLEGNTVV
Sequence of S1P5 (Q9H228 whole entry): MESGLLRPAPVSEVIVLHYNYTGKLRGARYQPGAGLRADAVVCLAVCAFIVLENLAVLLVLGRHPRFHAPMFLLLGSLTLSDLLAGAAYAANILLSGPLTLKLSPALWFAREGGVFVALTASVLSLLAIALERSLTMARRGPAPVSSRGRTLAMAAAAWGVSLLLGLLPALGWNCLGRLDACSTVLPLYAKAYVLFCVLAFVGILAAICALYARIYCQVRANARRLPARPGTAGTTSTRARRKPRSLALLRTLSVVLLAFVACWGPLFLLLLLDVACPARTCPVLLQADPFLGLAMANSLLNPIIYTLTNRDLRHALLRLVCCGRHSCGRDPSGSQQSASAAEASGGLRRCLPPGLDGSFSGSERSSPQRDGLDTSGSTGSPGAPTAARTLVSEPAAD
Sequence of S1P3 (Q99500 whole entry): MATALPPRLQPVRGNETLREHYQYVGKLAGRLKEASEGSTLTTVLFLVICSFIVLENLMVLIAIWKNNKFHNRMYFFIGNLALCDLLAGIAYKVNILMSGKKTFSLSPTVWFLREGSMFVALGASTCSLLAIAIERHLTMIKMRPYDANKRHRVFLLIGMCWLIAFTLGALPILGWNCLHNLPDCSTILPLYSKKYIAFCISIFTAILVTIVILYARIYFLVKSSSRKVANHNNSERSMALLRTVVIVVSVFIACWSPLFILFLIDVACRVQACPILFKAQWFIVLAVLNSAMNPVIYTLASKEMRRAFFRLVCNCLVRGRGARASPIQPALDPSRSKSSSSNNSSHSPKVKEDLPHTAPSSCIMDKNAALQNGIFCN

O=C(O)C[C@H]1CCc2c1[nH]c1ccc(OCc3ccc(C4CCCC4)c(C(F)(F)F)c3)cc21 [Compound 1, (R)-2-(7-(4-cyclopentyl-3-(trifluoromethyl)benzyloxy)-1,2,3,4-tetrahydrocyclopenta[b]indol-3-yl)acetic acid] showed an EC50 (S1P1 [1]) of 6.1 nM, an EC50 (S1P2) greater than 10 µM and an EC50 (S1P5) of 24.4 nM. The EC50 (S1P3) was greater than 10 µM, the lymphocyte lowering (lymphocytes) was “demonstrated the lymphocyte lowering capabilities” and the EC50 (S1P1 [2]) was 0.093 nM. The EC50 (S1P4) was 147 nM, the dermal thickening ([3]; histology, FIG. 2B) was “significantly reduced” and the collagen deposition ([3]; hydroxyproline assay, FIG. 2A) was “significantly reduced”.

Source: patent publication US20210386706A1, “METHODS FOR THE TREATMENT OF SCLERODERMA” (Arena Pharmaceuticals, Inc., priority 2018, published 2021)
